5 compounds from ChEMBL document CHEMBL1144787, “Insect antifeedant sesquiterpene acetals from the liverwort Lepidolaena clavigera. 2. structures, artifacts, and activity” (J Nat Prod, 2008) can be followed below.

Data set [1] can be described thus: Antifeedant activity in Tineola bisselliella larvae assessed as loss in wool weight at 0.1% w/w relative to control. It is filed as functional.
For data set [2], the system named is Tineola bisselliella. Description: Survival of Tineola bisselliella larvae at 0.1% w/w relative to control. Type of data set: functional.
Data set [3] can be described thus: Cytotoxicity against monkey BSC cells assessed as zone of inhibition at 30 ug/disc. Type of data set: cell-based, Macaca mulatta. The note with it: rhesus monkey.
A short description of data set [4]: Antifeedant activity in Anthrenocerus australis larvae assessed as loss in wool weight at 0.05% w/w relative to control. It is filed as functional.
Data set [5] can be described thus: Antifeedant activity in Anthrenocerus australis larvae assessed as loss in wool weight at 0.1% w/w relative to control. Type of data set: functional.
The subject of data set [6] is Eurhopalus australis. Description: Survival of Anthrenocerus australis larvae at 0.1% w/w relative to control. Type of data set: functional.
Data set [7] in a line: Antifeedant activity in Anthrenocerus australis larvae assessed as loss in wool weight at 0.025% w/w relative to control. It is filed as functional.
In data set [8] the test system is Eurhopalus australis. Description: Survival of Anthrenocerus australis larvae at 0.05% w/w relative to control. Type of data set: functional.
Data set [9] relates to Eurhopalus australis. Description: Survival of Anthrenocerus australis larvae at 0.025% w/w relative to control. It is filed as functional.
Data set [10] can be described thus: Cytotoxicity against monkey BSC cells assessed as zone of inhibition at 60 ug/disc. It is filed as cell-based, Macaca mulatta. The note with it: rhesus monkey.
Data set [11] is described as follows: Antifeedant activity in Anthrenocerus australis larvae assessed as loss in wool weight at 0.01% w/w relative to control. Type of data set: functional.
The subject of data set [12] is Tineola bisselliella. Description: Antifeedant activity in Tineola bisselliella larvae assessed as loss in wool weight at 0.01% w/w relative to control. It is filed as functional.
The test system of data set [13] is Eurhopalus australis. Put plainly: Survival of Anthrenocerus australis larvae at 0.01% w/w relative to control. It is filed as functional.
Data set [14] has as its system Tineola bisselliella. Description: Survival of Tineola bisselliella larvae at 0.01% w/w relative to control. Type of data set: functional.

A value given as a limit tells only on which side of the number the result lay.

For `CC(=O)OC(C(=O)C=C(C)C)[C@]12[C@@H](OC(C)=O)O[C@@H]3C=C(C)[C@H]1C[C@@H]32` (stereo partly drawn) [CLAVIGERIN A], the Activity in data set [1] turned out to be 2%. In addition, the survival at 0.1 % strength in the data set on Tineola bisselliella [2] is 95%. Moreover, in [3], the “inhibition zone (IZ)” value stood at 1 mm.
On to `CC(=O)O[C@H]1O[C@@H]2C=C(C)[C@H]3C[C@@H]2[C@@]13CC(=O)C=C(C)C` [CLAVIGERIN B], for which the Activity in data set [1] is -74%; in [4], -79%; in data set [5] it was -78%; in [7], -34%. The survival at 0.1 % strength worked out at 27% in the data set on Tineola bisselliella [2] and 95% in the data set with Eurhopalus australis [6]. Moreover, the “inhibition zone (IZ)” value in data set [3] stood at 1 mm. This compound had a survival at 0.05 % strength in the data set on Eurhopalus australis [8] of 98%. The survival at 0.025 % strength in the data set on Eurhopalus australis [9] amounted to 98%.
In the case of `CC(=O)O[C@H]1O[C@@H]2C=C(C)[C@H]3C[C@@H]2[C@@]13CC(=O)CC(C)C` [CLAVIGERIN C], the Activity in data set [1] was -95%; in data set [4], -62%; in data set [5] it was -86%; in [7] it was -50%. Moreover, the survival at 0.1 % strength with Tineola bisselliella [2] came to 5%; with Eurhopalus australis [6], 96%. The “inhibition zone (IZ)” value in [3] is > 4 mm. Moreover, the survival at 0.05 % strength in the data set with Eurhopalus australis [8] turned out to be 97%. Besides, the survival at 0.025 % strength with Eurhopalus australis [9] is 98%.
On to `CO[C@H]1O[C@@H]2C=C(C)[C@H]3C[C@@H]2[C@@]13CC(=O)CC(C)C` [METHOXY CLAVIGERIN C], for which, in [10], the “inhibition zone (IZ)” value was found to be 1 mm. The Activity in data set [1] is -12%. For the same compound, in the data set with Tineola bisselliella [2], the survival at 0.1 % strength was found to be 86%.
Take `CC1(C)C(C=C(Cl)Cl)C1C(=O)OCc1cccc(Oc2ccccc2)c1` (stereo not drawn) [PERMETHRIN]: the Activity (in [11]; in the data set with Tineola bisselliella [12]) was -100% throughout. Besides, the survival at 0.01 % strength in the data set on Eurhopalus australis [13] came out at 96%; in the data set with Tineola bisselliella [14] it was 0%.
